The source of these data is patent publication US20240188561A1, “ADDITIVES FOR ENHANCING THE PESTICIDAL EFFECTIVENESS OF PESTICIDAL MICROORGANISMS” (priority 2021, published 2024).

In assay [1] the test system is Pseudomonas fluorescens. As to the kind of experiment: Additive compatibility with microbial growth (growth slope by OD 620 nm). The format is cell-based. The settings on record: additive 0.01-5 %, exposed 4 hours at 16° C., then tryptic soy broth 30° C., slope compared to 0% sample.
Assay [2] relates to Bacillus subtilis. Described as above. The format is cell-based. The settings on record: additive 0.01-5 %, exposed 4 hours at 16° C., then tryptic soy broth 30° C., slope compared to 0% sample.
In assay [3] the test system is Bacillus firmus. Described as above. It is filed as cell-based. The settings on record: additive 0.01-5 %, exposed 4 hours at 16° C., then tryptic soy broth 30° C., slope compared to 0% sample.
Assay [4] deals with Bacillus amyloliquefaciens. The assay is described as above. It is filed as cell-based. The settings on record: additive 0.01-5 %, exposed 4 hours at 16° C., then tryptic soy broth 30° C., slope compared to 0% sample.
For assay [5], the system named is Downy Mildew (Plasmopara viticola). As to the kind of experiment: Spray trial on first year grape vines, Downy Mildew infection. It is filed as in vivo. The settings on record: in words. The procedure:
Eight solutions were prepared as described in Table 2a. These solutions were sprayed on first year grape vines showing no signs of Downy Mildew (Plasmopara viticola). […] Six of the solutions included Additive Blend 1 (a 50:50 blend of POE 10 soybean oil and PEG 400 dioleate).
Four applications were made over a month to the same grape vines. At the end of the month, the infection rates of Downy Mildew were evaluated by comparing to untreated grape vines.
Eight solutions were prepared as described in Table 6a. These solutions were sprayed on first year grape vines showing no signs of Downy Mildew (Plasmopara viticola). […] Six of the solutions included PEG 400 dioleate.

In assay [6] the test system is Powdery Mildew (Podosphaera xanthii). Put plainly: Spray trial on pumpkin plants, Powdery Mildew infection. It is filed as in vivo. The settings on record: in words. On the procedure: Eight solutions were prepared as described in Table 5a. These solutions were sprayed on pumpkin plants showing no signs of Powdery Mildew (Podosphaera xanthii). […] Six of the solutions included methyl soyate.
Four applications were made over a month to the same pumpkin plants. At the end of the month, the infection rates of Powdery Mildew were evaluated by comparing to untreated pumpkin plants.

Consider PEG 400 dioleate [v-3], for which the “Influence of additive on microbial growth slope (compatibility), Pseudomonas fluorescens” value in assay [1] is given as “E (E represents an Enhancing result)”. Further, the “Influence of additive on microbial growth slope (compatibility), Bacillus subtilis” value in assay [2] is given as “E (E represents an Enhancing result)”. Also, the “Influence of additive on microbial growth slope (compatibility), Bacillus firmus” value in assay [3] is reported as “E (E represents an Enhancing result)”. For the same substance, the “Influence of additive on microbial growth slope (compatibility), Bacillus amyloliquefaciens” value in assay [4] is “E (E represents an Enhancing result)”. The “Control of Downy Mildew (lower %-Infection) when additive was added to Serifel Biofungicide spray solutions” value in assay [5] is recorded as “improved control”.
Take Soya fatty acid methyl ester [ii-3]: in assay [1], the “Influence of additive on microbial growth slope (compatibility), Pseudomonas fluorescens” value is “N”. In addition, the “Influence of additive on microbial growth slope (compatibility), Bacillus subtilis” value in assay [2] was “N”. Besides, the “Influence of additive on microbial growth slope (compatibility), Bacillus firmus” value in assay [3] is listed as “N”. The “Influence of additive on microbial growth slope (compatibility), Bacillus amyloliquefaciens” value in assay [4] was “E (E represents an Enhancing result)”. Moreover, the “Control of Powdery Mildew (lower %-Infection) when additive was added to Serifel Biofungicide spray solutions” value in assay [6] is on record as “improved control”.
For Tridecyl alcohol POE 3 [xi-1], the “Influence of additive on microbial growth slope (compatibility), Pseudomonas fluorescens” value in assay [1] is recorded as “S”. The “Influence of additive on microbial growth slope (compatibility), Bacillus subtilis” value in assay [2] was “S”. The “Influence of additive on microbial growth slope (compatibility), Bacillus firmus” value in assay [3] is listed as “S”. Moreover, the “Influence of additive on microbial growth slope (compatibility), Bacillus amyloliquefaciens” value in assay [4] is “S”.
As for Tridecyl alcohol POE 9 [xi-2], the “Influence of additive on microbial growth slope (compatibility), Pseudomonas fluorescens” value in assay [1] is “S”. In addition, the “Influence of additive on microbial growth slope (compatibility), Bacillus subtilis” value in assay [2] was “S”. Moreover, in assay [3], the “Influence of additive on microbial growth slope (compatibility), Bacillus firmus” value is on record as “S”. In assay [4], the “Influence of additive on microbial growth slope (compatibility), Bacillus amyloliquefaciens” value is listed as “S”.
Regarding “Tridecyl alcohol POE 10 phosphate ester [xix-1]”, in assay [1], the “Influence of additive on microbial growth slope (compatibility), Pseudomonas fluorescens” value is “S”. In addition, the “Influence of additive on microbial growth slope (compatibility), Bacillus subtilis” value in assay [2] is listed as “S”. In addition, the “Influence of additive on microbial growth slope (compatibility), Bacillus firmus” value in assay [3] is reported as “S”. The “Influence of additive on microbial growth slope (compatibility), Bacillus amyloliquefaciens” value in assay [4] is given as “S”.
